Tests used:
[1] = DPPH radical scavenging assay; conditions: for IC50: half-maximal inhibitory concentration to DPPH radical, means ± SD (n = 3); for DPPH Inhibition Ratio (%): at a concentration of 500 μM;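 for all read-outs here: compounds in EtOH mixed 1:1 with 200 µM DPPH in EtOH in 96-well plates, kept dark 15 min at room temperature, with blank control and ascorbic acid as reference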
Description: (§1) The DPPH assay was conducted as follows: the tested compound (final concentration: 0.2–1000 μM in EtOH, 100 μL) and DPPH solution (200 μM in EtOH, 100 μL) were sequentially added to 96-well plates at room temperature, then hid from the light for 15 min. The blank control and positive control (ascorbic acid) were set simultaneously. OD values at 517 nm were detected with a microplate reader. ABTS^+ assay was carried out as follows: firstly, the ABTS^+ solution was prepared using the procedure in our previous paper [19]. Then, the tested compound (final concentration: 0.2–1000 μM in EtOH, 10 μL) and ABTS^+ solution (200 μL) were added to 96-well plates at room temperature in an orderly manner, and then hided from light for 6–8 min. The blank control and positive control (trolox) were set synchronously. OD values at 405 nm were then detected with a microplate reader. All the reactions were set up three replicates.

[2] = ABTS+ radical scavenging assay; conditions: for IC50: half-maximal inhibitory concentration to ABTS+ radical, means ± SD (n = 3); for ABTS+ Inhibition Ratio (%): at a concentration of 500 μM;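 for all read-outs here: ABTS+ radical solution incubated with compound in EtOH in 96-well plates for 6–8 min in the dark at room temperature, versus blank control, trolox as reference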
Description: as §1

[3] = biological target: α-glucosidase; test: α-Glucosidase inhibitory activity (PNPG substrate); type: biochemical; conditions: means ± SD (n = 3)
Description: Initially, 96-well plates with the following ingredients were added in a proper order: testing compound (50 μM), α-glucosidase solution (0.025 U/mL), buffer, and the zymolyte (1 mM), and kept at 37 °C for 50 min. […] All the reactions were set up with three replicates. OD values at 405 nm were recorded with a microplate reader.

C[C@@H]1O[C@@H](Oc2c(-c3ccc(O)c(O)c3)oc3cc(O)cc(O)c3c2=O)[C@H](O[C@@H]2O[C@H](CO)[C@@H](O)[C@H](O)[C@H]2O)[C@H](O)[C@H]1O [Compound 17, quercetin 3-(2″-β-D-glucosyl)-α-L-rhamnopyranoside]
IC50 [1]: 2620 ± 500 µM
IC50 [2]: 480.9 ± 4.1 µM

1-(3′,4′-dihydroxycinnamoyl) cyclopentane-2,3-diol [Compound 30]
IC50 [1]: 548 ± 61.5 µM
IC50 [2]: 307 ± 3.3 µM

O=C(O[C@H]1C(O)O[C@@H]2COC(=O)c3cc(O)c(O)c(O)c3-c3c(cc(O)c(O)c3O)C(=O)O[C@H]2[C@@H]1O)c1cc(O)c(O)c(O)c1 (stereo partly drawn) [Compound 3, 2-O-galloyl-4,6-O-(S)-hexahydroxydiphenoyl-β-D-glucopyranose]
IC50 [1]: 941 ± 191 µM
IC50 [2]: 106 ± 0.5 µM
IC50 [3]: 1.74 ± 0.03 µM

O=C(C=Cc1ccc(O)cc1)OC1CC(O)(C(=O)O)CC(O)C1O (centres unmarked) [Compound 26, 5-O-(E)-p-coumaroylquinic acid]
DPPH Inhibition Ratio (%) [1]: 6.92%
ABTS+ Inhibition Ratio (%) [2]: 6.82%

O=C(/C=C/c1ccc(O)c(O)c1)O[C@@H]1CC(C(=O)O)=C[C@@H](O)[C@H]1O [Compound 27, 5-O-caffeoylshikimic acid]
IC50 [1]: 722 ± 43.2 µM
IC50 [2]: 545 ± 12.8 µM

O=C(OC[C@H]1O[C@@H](OC(=O)c2cc(O)c(O)c(O)c2)[C@H](O)[C@@H](O)[C@@H]1O)c1cc(O)c(O)c(O)c1 [Compound 6, 1,6-di-O-galloyl-β-D-glucopyranose]
IC50 [1]: 217 ± 27.4 µM
IC50 [2]: 99.7 ± 1.4 µM

O=C(OC[C@H]1O[C@@H](OC(=O)c2cc(O)c(O)c(O)c2)[C@H](O)[C@@H](O)[C@@H]1OC(=O)c1cc(O)c(O)c(O)c1)c1cc(O)c(O)c(O)c1 [Compound 8, 1,4,6-tri-O-galloyl-β-D-glucopyranose]
IC50 [1]: 156 ± 26.1 µM
IC50 [2]: 77.2 ± 0.7 µM
IC50 [3]: 2.01 ± 0.02 µM

O=C(O[C@@H]1O[C@@H]2COC(=O)c3cc(O)c(O)c(O)c3-c3c(cc(O)c(O)c3O)C(=O)O[C@H]2[C@H](O)[C@H]1O)c1cc(O)c(O)c(O)c1 [Compound 4, 1-O-galloyl-4,6-O-(S)-hexahydroxydiphenoyl-β-D-glucopyranose]
IC50 [1]: 312 ± 10.8 µM
IC50 [2]: 84.8 ± 0.4 µM
IC50 [3]: 1.96 ± 0.06 µM

O=C1O[C@@H](c2ccc(O)cc2)Cc2cc(O)cc(O)c21 [Compound 32, (3R)-thunberginol C]
IC50 [1]: 3940 ± 825 µM
IC50 [2]: 560.3 ± 3.3 µM

C[C@@H]1O[C@@H](OC[C@H]2O[C@@H](Oc3c(-c4ccc(O)cc4)oc4cc(O)cc(O)c4c3=O)[C@H](O)[C@@H](O)[C@@H]2O)[C@H](O)[C@H](O)[C@H]1O [Compound 12, kaempferol 3-O-rutinoside]
DPPH Inhibition Ratio (%) [1]: 8.58%
ABTS+ Inhibition Ratio (%) [2]: 4.24%

O=c1c(O[C@@H]2O[C@H](CO)[C@@H](O)[C@H](O)[C@H]2O)c(-c2ccc(O)c(O)c2)oc2cc(O)cc(O)c12 [Compound 11, quercetin 3-O-β-D-glucopyranoside]
IC50 [2]: 322.8 ± 0.6 µM

O=C(O)/C=C/c1ccc(O)cc1 [Compound 29, E-p-hydroxycinnamic acid]
DPPH Inhibition Ratio (%) [1]: 1.55%
ABTS+ Inhibition Ratio (%) [2]: 8.12%

O=C(O)c1cccc(O)c1 [Compound 22, m-hydroxybenzoic acid]
DPPH Inhibition Ratio (%) [1]: 7.58%
ABTS+ Inhibition Ratio (%) [2]: 7.00%

O=c1c(O)c(-c2ccc(O)c(O)c2)oc2cc(O)cc(O)c12 [Compound 16, quercetin]
IC50 [1]: 1140 ± 207 µM
IC50 [2]: 206 ± 2.6 µM

O=C(O)/C=C\c1ccc(O[C@@H]2O[C@H](COC(=O)c3cc(O)c(O)c(O)c3)[C@@H](O)[C@H](O)[C@H]2O)cc1 [Compound 2, 4-O-(6′-O-galloyl-β-D-glucopyranosyl)-cis-p-coumaric acid]
IC50 [1]: 502 ± 14 µM
IC50 [2]: 400 ± 9.6 µM

O=C(O[C@@H]1O[C@@H]2COC(=O)c3cc(O)c(O)c4oc5c(O)c(O)cc(c5c34)C(=O)O[C@H]2[C@H](O)[C@H]1O)c1cc(O)c(O)c(O)c1 [Compound 1, 1-O-galloyl-4,6-tetrahydroxydibenzofurandicarboxyl-β-D-glucopyranose]
IC50 [1]: 339 ± 24.7 µM
IC50 [2]: 111 ± 2.1 µM
IC50 [3]: 1.77 ± 0.05 µM

O=C(/C=C/c1ccc(O)cc1)OC[C@H]1O[C@@H](Oc2c(-c3ccc(O)cc3)oc3cc(O)cc(O)c3c2=O)[C@H](O)[C@@H](O)[C@@H]1O [Compound 10, kaempferol 3-O-(6″-trans-p-coumaroyl)-β-D-glucopyranoside]
DPPH Inhibition Ratio (%) [1]: 6.28%
ABTS+ Inhibition Ratio (%) [2]: 11.55%

C[C@@H]1O[C@@H](OC[C@H]2O[C@@H](Oc3c(-c4ccc(O)c(O)c4)oc4cc(O)cc(O)c4c3=O)[C@H](O)[C@@H](O)[C@@H]2O)[C@H](O)[C@H](O)[C@H]1O [Compound 13, rutin]
IC50 [1]: 900 ± 63.4 µM
IC50 [2]: 266 ± 5.4 µM

O=C(O[C@@H]1O[C@@H]2COC(=O)c3cc(O)c(O)c(O)c3-c3c(cc(O)c(O)c3O)C(=O)O[C@H]2[C@H](O)[C@H]1OC(=O)c1cc(O)c(O)c(O)c1)c1cc(O)c(O)c(O)c1 [Compound 5, 1,2-di-O-galloyl-4,6-O-(S)-hexahydroxydiphenoyl-β-D-glucopyranose]
IC50 [1]: 301 ± 79.6 µM
IC50 [2]: 75.6 ± 2.1 µM
IC50 [3]: 0.67 ± 0.04 µM

O=C(OC[C@H]1O[C@@H](OC(=O)c2cc(O)c(O)c(O)c2)[C@H](OC(=O)c2cc(O)c(O)c(O)c2)[C@@H](O)[C@@H]1O)c1cc(O)c(O)c(O)c1 [Compound 7, 1,2,6-tri-O-galloy-β-D-glucopyranose]
IC50 [1]: 532 ± 38 µM
IC50 [2]: 128.4 ± 0.9 µM
IC50 [3]: 1.96 ± 0.05 µM

O=C(O)/C=C/c1ccc(O)c(O)c1 [Compound 28, caffeic acid]
IC50 [1]: 479 ± 33.8 µM
IC50 [2]: 199 ± 4.1 µM

C[C@@H]1O[C@@H](Oc2c(-c3ccc(O)cc3)oc3cc(O)cc(O)c3c2=O)[C@H](O[C@@H]2O[C@H](CO)[C@@H](O)[C@H](O)[C@H]2O)[C@H](O)[C@H]1O [Compound 18, kaempferol 3-(2″-β-D-glucosyl)-α-L-rhamnopyranoside]
DPPH Inhibition Ratio (%) [1]: 1.08%
ABTS+ Inhibition Ratio (%) [2]: 5.89%

O=C(O)c1ccc(O)c(O)c1 [Compound 20, 3,4-dihydroxybenzoic acid]
IC50 [1]: 2120 ± 336 µM
IC50 [2]: 462 ± 9.3 µM

O=c1c(O[C@@H]2O[C@H](CO)[C@@H](O)[C@H](O)[C@H]2O)c(-c2ccc(O)cc2)oc2cc(O)cc(O)c12 [Compound 9, kaempferol 3-O-β-D-glucopyranoside]
DPPH Inhibition Ratio (%) [1]: 0.97%
ABTS+ Inhibition Ratio (%) [2]: 0.19%

O=C(O)c1ccc(O)cc1 [Compound 21, p-hydroxybenzoic acid]
DPPH Inhibition Ratio (%) [1]: 3.32%
ABTS+ Inhibition Ratio (%) [2]: 3.21%

O=C(O)c1cc(O)c(O)c(O)c1 [Compound 19, gallic acid]
IC50 [1]: 237 ± 22.6 µM
IC50 [2]: 202 ± 3.4 µM

COC(=O)c1cc(O)c(O)c(O)c1 [Compound 23, methyl gallate]
IC50 [1]: 299 ± 32.3 µM
IC50 [2]: 187 ± 2.7 µM

Cc1c(C)c2c(c(C)c1O)CCC(C)(C(=O)O)O2 (centres unmarked) [Trolox, trolox, reference compound]
IC50 [2]: 405 ± 6.2 µM

O=C1O[C@H]([C@@H](O)CO)C(O)=C1O [Ascorbic acid, ascorbic acid, reference compound]
IC50 [1]: 1200 ± 87.7 µM

C[C@@H]1O[C@@H](Oc2c(-c3ccc(O)cc3)oc3cc(O)cc(O)c3c2=O)[C@H](O)[C@H](O)[C@H]1O [Compound 15, kaempferol 3-O-α-L-rhamnopyranoside]
DPPH Inhibition Ratio (%) [1]: 1.04%
ABTS+ Inhibition Ratio (%) [2]: 8.00%

O=c1c(O[C@@H]2O[C@H](CO)[C@H](O)[C@H](O)[C@H]2O)c(-c2ccc(O)cc2)oc2cc(O)cc(O)c12 [Compound 14, kaempferol 3-O-β-D-galactopyranoside]
DPPH Inhibition Ratio (%) [1]: −0.94%
ABTS+ Inhibition Ratio (%) [2]: 4.03%

— PMC10340768, “New Hydrolyzable Tannin with Potent Antioxidant and α-Glucosidase Inhibitory Activity from Black Tea Produced from Camellia taliensis” (Foods, 2023)
